Test results as given in patent publication US20260250320A1, “LIPIDATED PEPTIDE INHIBITORS OF INTERLEUKIN-23 RECEPTOR” (Janssen Pharmaceutica NV, priority 2023, published 2026).
*1 amine or outer side, *2 acyl side, *3 side chain or, on linkers, in order; H or OH if unused. Where a SMILES comes first, the peptide text is derived from it. Bridges are numbered along the chain shown (N, C = ends). Roman numbers before positions name the chains, in order. Side-chain parts run from the residue outwards. [ ]: non-standard residue; d: D form. The star is where a group is joined. ξ: configuration not given here. X35 = NCCOc1ccc(C[C@H](N[*:1])C(=O)CC(Cc2ccc3ccccc3c2)C(=O)[*:2])cc1; X16 = CC(C)(S[*:2])[C@H](CC(=O)CCOCCOCC[N+](C)(C)C)C(=O)[*:1]; PEG12 = NCCOCCOCCOCCOCCOCCOCCOCCOCCOCCOCCOCCOCCC(=O)O; Trp(7-Me,2,3-dihydro) = Cc1cccc2c1NCC2C[C@H](N)C(=O)O; CH2CH2OCH2CH2OCH2CH2NMe3+ = C[N+](C)(C)CCOCCOCC*; Trp(7-Me) = Cc1cccc2c(C[C@H](N)C(=O)O)c[nH]c12; C20 diacid = O=C(O)CCCCCCCCCCCCCCCCCCC(=O)*; d(γGlu) = O=C(O)[C@@H](CCC(=O)[*:2])N[*:1]; C18 diacid = O=C(O)CCCCCCCCCCCCCCCCC(=O)*; γGlu = O=C(O)[C@H](CCC(=O)[*:2])N[*:1]; 2Nal = N[C@@H](Cc1ccc2ccccc2c1)C(=O)O; AEF = NCCOc1ccc(C[C@H](N)C(=O)O)cc1; X2 = C[N+](C)(C)C[C@@H](CC(=O)O)N*; 3Pal = N[C@@H](Cc1cccnc1)C(=O)O; Lys(Me) = CNCCCC[C@H](N)C(=O)O; NMeK = CN[C@@H](CCCCN)C(=O)O; Pen = CC(C)(S)[C@H](N)C(=O)O; Suc = O=C(CCC(=O)[*:2])[*:1]; Thp = NC1(C(=O)O)CCOCC1; ξN = NC(=O)CC(N)C(=O)O; AEEA = NCCOCCOCC(=O)O; ξK = NCCCCC(N)C(=O)O; Sar = CNCC(=O)O

Legend:
[1] = tested on: IL-23-stimulated phosphorylated STAT3 in peripheral blood mononuclear cells (PBMCs); experiment: PBMC pSTAT3 Assay; type: cell-based; conditions: PBMCs from healthy donors; 30 min preincubation with peptide; IL-23 5 ng/mL for 30 min; phospho-STAT3 by MSD
How it was run: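 Healthy-donor PBMCs expanded 4 days on anti-CD3 with 100 ng/mL IL-1β, starved ~4 h in RPMI-0.1% BSA, preincubated 30 min with peptide, then stimulated 30 min at 37 °C with 5 ng/mL IL-23. Lysate pSTAT3 measured by MSD phospho-STAT panel; IC50 derived.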

IL-23R = target: T1, IL-23R (Homo sapiens, UniProt Q5VWK5); experiment: IL23R Reporter Assay; type: cell-based; conditions: HEK293 cells containing IL-23R, IL-12Rβ1 and STAT-inducible firefly luciferase reporter; 10 ng/mL IL-23 (EC90); 5 h
T1 construct: HEK293 cells containing IL-23R, IL-12Rβ1 and a firefly luciferase reporter gene driven by a STAT-inducible promoter (Promega); host or cells: HEK293
T1 sequence (Q5VWK5 24-629): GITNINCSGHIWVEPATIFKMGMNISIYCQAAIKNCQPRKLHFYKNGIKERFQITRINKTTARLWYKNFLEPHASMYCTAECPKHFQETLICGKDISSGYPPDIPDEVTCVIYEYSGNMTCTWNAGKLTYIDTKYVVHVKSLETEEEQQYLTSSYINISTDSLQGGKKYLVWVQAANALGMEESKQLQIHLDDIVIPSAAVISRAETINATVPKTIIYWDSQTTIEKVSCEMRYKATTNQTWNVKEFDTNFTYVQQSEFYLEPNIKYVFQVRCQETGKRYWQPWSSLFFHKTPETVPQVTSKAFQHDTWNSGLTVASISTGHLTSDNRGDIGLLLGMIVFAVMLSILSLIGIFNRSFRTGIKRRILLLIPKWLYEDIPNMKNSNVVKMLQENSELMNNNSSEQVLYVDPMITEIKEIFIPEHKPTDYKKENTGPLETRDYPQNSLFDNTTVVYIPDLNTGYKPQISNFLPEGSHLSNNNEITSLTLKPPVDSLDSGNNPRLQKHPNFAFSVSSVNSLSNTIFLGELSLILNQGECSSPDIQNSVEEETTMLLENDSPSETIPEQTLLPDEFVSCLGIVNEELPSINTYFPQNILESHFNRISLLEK
How it was run: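 HEK293 cells carrying IL-23R, IL-12Rβ1 and a STAT-driven firefly luciferase reporter (4000 cells/well) received compound, then 10 ng/mL IL-23 solution (EC90), and were incubated for 5 h at 37° C. BioGlo luminescence was normalised to IL-23 alone (0%) and 30 μM control inhibitor (100%). IC50 came from a 4-parameter Hill fit.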

Row | IC50 (IL-23R) [nM] | Compound | IC50 [1] [nM]
1 | ≥ 500 | CC(=O)NCCCC[C@@H]1NC(=O)[C@H](Cc2c[nH]c3c(C)cccc23)NC(=O)[C@H]([C@@H](C)O)NC(=O)[C@H](CC(N)=O)NC(=O)[C@@H](NC(C)=O)C(C)(C)SSC(C)(C)[C@@H](C(=O)N[C@@H](Cc2ccc(OCCN)cc2)C(=O)CC(Cc2ccc3ccccc3c2)C(=O)NC2(C(=O)N[C@@H](CCC(=O)O)C(=O)N[C@@H](CC(N)=O)C(=O)N[C@@H](Cc3cccnc3)C(=O)N(C)CC(=O)N[C@@H](CCCCNC(=O)COCCOCCNC(=O)COCCOCCNC(=O)CC[C@H](NC(=O)CCCCCCCCCCCCCCCCC(=O)O)C(=O)O)C(=O)N(C)C)CCOCC2)NC1=O (stereo partly drawn) [compound 149, MeCO-Pen(3)-N-T-7MeW-K(Ac)-Pen(3)-AEF-2Nal-THP-E-N-3Pya-Sar-K(PEG2PEG2gEC18OH)-CON(Me)2] (I: Ac-[Pen]NT[Trp(7-Me)]K(Ac)[Pen] / II: [Thp]EN[3Pal][Sar]K([AEEA-AEEA-γGlu-C18 diacid])-NMe2; disulfide I:1-I:6; linker I:C-II:N via X35) | ≥ 5
2 | < 50 | CC(=O)NCCCC[C@@H]1NC(=O)[C@H](Cc2c[nH]c3c(C)cccc23)NC(=O)[C@H]([C@@H](C)O)NC(=O)[C@H](CC(N)=O)NC(=O)[C@@H](NC(C)=O)C(C)(C)SSC(C)(C)[C@@H](C(=O)N[C@@H](Cc2ccc(OCCN)cc2)C(=O)N[C@@H](Cc2ccc3ccccc3c2)C(=O)NC2(C(=O)N[C@@H](CCCCNC(C)=O)C(=O)N[C@@H](CC(N)=O)C(=O)N[C@@H](Cc3cccnc3)C(=O)N(C)CC(=O)N[C@@H](CCCCNC(=O)CCOCCOCCOCCOCCOCCOCCOCCOCCOCCOCCOCCOCCNC(=O)CC[C@H](NC(=O)CCCCCCCCCCCCCCCCC(=O)O)C(=O)O)C(N)=O)CCOCC2)NC1=O [compound 102, MeCO-Pen(3)-N-T-7MeW-K(Ac)-Pen(3)-AEF-2Nal-THP-K(Ac)-N-3Pya-Sar-K(PEG12gEC18OH)-CONH2] | < 0.5
3 | < 50 | CC(=O)NC(CCCCNC(=O)COCCOCCNC(=O)COCCOCCNC(=O)CC[C@@H](NC(=O)CCCCCCCCCCCCCCCCC(=O)O)C(=O)O)C(=O)N[C@@H]1C(=O)N[C@@H](CC(N)=O)C(=O)N[C@@H]([C@@H](C)O)C(=O)N[C@@H](Cc2c[nH]c3c(C)cccc23)C(=O)N[C@@H](CCCCNC(=O)CCC(=O)N[C@H](CC(=O)O)C[N+](C)(C)C)C(=O)N[C@H](C(=O)N[C@@H](Cc2ccc(OCCN)cc2)C(=O)N[C@@H](Cc2ccc3ccccc3c2)C(=O)NC2(C(=O)N[C@@H](CCC(=O)O)C(=O)N[C@@H](CC(N)=O)C(=O)N[C@@H](Cc3cccnc3)C(=O)N(C)CC(N)=O)CCOCC2)C(C)(C)SSC1(C)C (stereo partly drawn) [compound 34, MeCO-k(PEG2PEG2gEC18OH)-Pen(3)-N-T-7MeW-K(d)-Pen(3)-AEF-2Nal-THP-E-N-3Pya-Sar-CONH2] (Ac-[ξK]([AEEA-AEEA-d(γGlu)-C18 diacid])[Pen]NT[Trp(7-Me)]K([Suc-X2])[Pen][AEF][2Nal][Thp]EN[3Pal][Sar]-NH2; disulfide 2-7) | < 0.5

Second part, the compound before the results:

Row | Compound | IC50 (IL-23R) [nM] | IC50 [1] [nM]
4 | CC(=O)NCCCC[C@@H]1NC(=O)[C@H](CC2CNc3c(C)cccc32)NC(=O)[C@H]([C@@H](C)O)NC(=O)[C@H](CC(N)=O)NC(=O)[C@@H](NC(=O)[C@@H](CCCNC(=N)N)NC(C)=O)C(C)(C)SSC(C)(C)[C@@H](C(=O)N[C@@H](Cc2ccc(OCCN)cc2)C(=O)N[C@@H](Cc2ccc3ccccc3c2)C(=O)NCC(=O)N[C@@H](CCCCNC(=O)CCOCCOCCOCCOCCOCCOCCOCCOCCOCCOCCOCCOCCNC(=O)CC[C@H](NC(=O)CCCCCCCCCCCCCCCCC(=O)O)C(=O)O)C(=O)N[C@@H](CC(N)=O)C(=O)N[C@@H](Cc2cccnc2)C(=O)N(C)CC(N)=O)NC1=O (stereo partly drawn) [compound 146, MeCO-r-Pen(3)-N-T-7MeW-K(Ac)-Pen(3)-AEF-2Nal-THP-K(PEG12gEC18OH)-N-3Pya-Sar-CONH2] (Ac-[dR][Pen]NT[Trp(7-Me,2,3-dihydro)]K(Ac)[Pen][AEF][2Nal]GK([PEG12-γGlu-C18 diacid])N[3Pal][Sar]-NH2; disulfide 2-7) | 50 to 500 | < 0.5
5 | CC(=O)N(C)CCCC[C@@H]1NC(=O)[C@H](Cc2c[nH]c3c(C)cccc23)NC(=O)[C@H]([C@@H](C)O)NC(=O)[C@H](CC(=O)N(C)C)NC(=O)[C@@H](CC(=O)CCOCCOCC[N+](C)(C)C)C(C)(C)SSC(C)(C)[C@@H](C(=O)N[C@@H](Cc2ccc(OCCOCCOCC[N+](C)(C)C)cc2)C(=O)N[C@@H](Cc2ccc3ccccc3c2)C(=O)NC2(C(=O)N[C@@H](CCCCN(C)C(C)=O)C(=O)NC(CC(N)=O)C(=O)N[C@@H](Cc3cccnc3)C(=O)N(C)[C@@H](CCCCNC(=O)COCCOCCNC(=O)COCCOCCNC(=O)CC[C@H](NC(=O)CCCCCCCCCCCCCCCCC(=O)O)C(=O)O)C(N)=O)CCOCC2)NC1=O (stereo partly shown) [compound 113, cPEG3aCO-Pen(3)-N(N(Me)2)-T-7MeW-K(NMeAc)-Pen(3)-APEG3F-2Nal-THP-K(NMeAc)-N-3Pya-NMeK(PEG2PEG2gEC18OH)-CONH2] (D(NMe2)T[Trp(7-Me)][Lys(Me)](Ac)[Pen]Y(CH2CH2OCH2CH2OCH2CH2NMe3+)[2Nal][Thp][Lys(Me)](Ac)[ξN][3Pal][NMeK]([AEEA-AEEA-γGlu-C18 diacid])-NH2; linker N-5 via X16) | < 50 | < 0.5
6 | C=CCOC(=O)CN1CCOc2ccc(cc2)C[C@H](NC(=O)[C@H]2NC(=O)[C@H](CCCCNC(C)=O)NC(=O)[C@H](Cc3c[nH]c4c(C)cccc34)NC(=O)[C@H]([C@@H](C)O)NC(=O)[C@H](CCCCNC(=O)COCCOCCNC(=O)COCCOCCNC(=O)CC[C@H](NC(=O)CCCCCCCCCCCCCCCCCC(=O)O)C(=O)O)NC(=O)[C@@H](NC(=O)CCOCCOCCNC(=O)COCCOCCNC(=O)COCCOCCNC(=O)CC[C@H](NC(=O)CCCCCCCCCCCCCCCCC(=O)O)C(=O)O)C(C)(C)SSC2(C)C)C(=O)N[C@@H](Cc2ccc3ccccc3c2)C(=O)NC2(CCOCC2)C(=O)N[C@@H]1C(=O)N[C@@H](CC(N)=O)C(=O)N[C@@H](Cc1cccnc1)C(=O)N(C)CC(N)=O [compound 24, AEEP(PEG2PEG2gEC18OH)-Pen(3)-K(PEG2PEG2gEC18OH)-T-7MeW-K(Ac)-Pen(3)-AEF-2Nal-THP-E(OAll)-N-3Pya-Sar-CONH2] | 50 to 500 | 0.5 to 5
7 | CC(=O)NCCCC[C@@H]1NC(=O)[C@H](Cc2c[nH]c3c(C)cccc23)NC(=O)[C@H]([C@@H](C)O)NC(=O)[C@H](CC(N)=O)NC(=O)[C@@H](NC(=O)[C@@H](CCCCNC(=O)CCOCCOCCOCCOCCOCCOCCOCCOCCOCCOCCOCCOCCNC(=O)CC[C@H](NC(=O)CCCCCCCCCCCCCCCCCCC(=O)O)C(=O)O)NC(C)=O)C(C)(C)SSC(C)(C)[C@@H](C(=O)N[C@@H](Cc2ccc(OCCN)cc2)C(=O)N[C@@H](Cc2ccc3ccccc3c2)C(=O)NC2(C(=O)N[C@@H](CCCCNC(C)=O)C(=O)N[C@@H](CC(N)=O)C(=O)N[C@@H](Cc3cccnc3)C(=O)N(C)CC(N)=O)CCOCC2)NC1=O [compound 104, MeCO-k(PEG12gEC20OH)-Pen(3)-N-T-7MeW-K(Ac)-Pen(3)-AEF-2Nal-THP-K(Ac)-N-3Pya-Ser-CONH2] (Ac-[dK]([PEG12-γGlu-C20 diacid])[Pen]NT[Trp(7-Me)]K(Ac)[Pen][AEF][2Nal][Thp]K(Ac)N[3Pal][Sar]-NH2; disulfide 2-7) | < 50 | < 0.5
8 | CC(=O)NCCCC[C@@H]1NC(=O)[C@H](Cc2c[nH]c3c(C)cccc23)NC(=O)[C@H]([C@@H](C)O)NC(=O)[C@H](CC(N)=O)NC(=O)[C@@H](NC(=O)COCCOCCNC(=O)COCCOCCNC(=O)CC[C@H](NC(=O)CCCCCCCCCCCCCCCCC(=O)O)C(=O)O)C(C)(C)SSC(C)(C)[C@@H](C(=O)N[C@@H](Cc2ccc(OCCN)cc2)C(=O)N[C@@H](Cc2ccc3ccccc3c2)C(=O)NC2(C(=O)N[C@@H](CCCCNC(=O)CCC(=O)N[C@H](CC(=O)O)C[N+](C)(C)C)C(=O)N[C@@H](CC(N)=O)C(O)N[C@@H](Cc3cccnc3)C(=O)N(C)CC(N)=O)CCOCC2)NC1=O (stereo partly drawn) [compound 44, HOC18gEPEG2PEG2CO-Pen(3)-N-T-7MeW-K(Ac)-Pen(3)-AEF-2Nal-THP-K(d)-N-3Pya-Sar-CONH2] | < 50 | < 0.5
